“Also recorded” adds a separate entry of the source. Where no end group is shown, it is not given here. [ ]: non-standard residue; d: D form.
Tests used:
[1] = test system: ICR mice, punch skin wound; experiment: murine wound model, wound closure; format: in vivo; conditions: topical 10 μg per mouse daily for 10 consecutive days
Excerpt: FIGS. 1 and 2 illustrate the effect of polypeptides IK34720 (SEQ ID NO: 3—RSKAKNPLYRRRRRRRRR) (FIG. 1) and the dextro-reverso sequence IK236770 (SEQ ID NO: 4—rrrrrrrrrylpnkaksr) (FIG. 2), on wound healing over 10 days in a murine wound model in accordance with the following protocol.
Three groups of 8 male ICR mice with a mean weight of 22 g (+2 g) were used in the present study. The animals were housed in individual cages during the study. Under isoflurane gas anaesthesia, the shoulder and back region of each animal was shaved and a sharp punch (ID 12 mm) was used to induce a wound by removing the skin, including panniculus carnosus and adherent tissues on Day 1.
Following induction of the wound the polypeptides IK34720 and IK236770 were topically administered to the site of the wound at a dosage of 10 μg per animal. […] An additional group which comprised the administration of Phosphate buffered Saline (PBS) at pH 7.4 was used as a negative control.
The wound healing was analysed on Days 5, 7, 9 and 11 by tracing the periphery of the wound onto clear plastic sheets with the wound area calculated by an Image analyzer ProPlus (Media Cybernetics, Version 4.5.0.29. The percentage closure of the wound (%) was calculated. Percentage closure of the wound was determined on 5, 7, 9 and 11. ANOVA and Dunnett's test were applied to test significant significance between the treated groups (peptide and positive control groups) and the negative control group at each time point of measurement. Differences were considered statistically significant at P<0.05, and are indicated by *.

[2] = test system: MMP1; experiment: MMP1 immunohistochemical staining in UV-irradiated human skin explants; format: cell-based; conditions: 3 hrs post irradiation/treatment; Calcitriol 1 nM; IK34720 50, 250 or 500 μM
Description: Human skin (2×human explant tissues) removed at elective surgery was cleaned, dissected and cut into pieces of approx. 5 mm×5 mm. Each piece was placed in a well of a 96 well plate, with individual plates prepared to assess the effects 3 hrs post treatment. Skin was subjected to UV-radiation from solar-simulated UV source for 1.5 h (UVR), or non-irradiation (SHAM), and treated immediately after with a vehicle control, Calcitriol (1 nM) or the polypeptide IK34720 (SEQ ID NO: 3) at concentrations of 50 μM, 250 μM or 500 μM. In FIG. 17, IK50, IK250 and IK500 as μM concentrations refers to 15 μg, 75 μg and 150 μg of IK34720 per 120 μL culture medium/explant, respectively.
Samples harvested at 3 hrs were fixed, sectioned, immunohistochemically stained for MMP1 and quantified for MMP1 expression, by expressing epidermal area stained for MMP1 as a function of total epidermal area examined.

[3] = test system: dermal fibroblasts; experiment: TBARS lipid peroxidation assay, UV-irradiated dermal fibroblasts; format: cell-based; conditions: IK-3 at the highest concentration (5 μM); 1,25D
Description: The ability of the polypeptide RSKAKNPLYRRRRRRRRR to alter UV-induced oxidative damage of cell-derived lipids was examined using the TBARS thiobarbituric acid-reactive substances (TBARS) lipid peroxidation assay.
After irradiation or sham-irradiation of dermal fibroblasts, supernatants (900 μL) were collected. In brief, 90 μL of butylated hydroxytoluene (2% w/w in ethanol) was added and samples kept frozen (−20° C.) until the TBARS assay. Petri dishes were washed twice with 1 mL of HBSS, cells scraped in 600 μL of water and 60 μL of 0.5% aqueous Triton X100 added to this solution, for protein determination carried out by the Lowry method (Lowry O H et al, J. Biol. Chem., 1951, 193:265-275). TBARS were fluorometrically assayed as described (Morlière P et al, Biochim. Biophys. Acta, 1991, 1084:261-268). Briefly, thawing samples were heated in the presence of thiobarbituric acid in acidic conditions, and TBARS extracted with 1-butanol and fluorometrically quantified (λexc=515 nm and Aem=550 nm). Tetraethoxypropane, which quantitatively yields the malondialdehyde-thiobarbituric acid adduct in the assay conditions, was used for calibration. TBARS values, expressed in malondialdehyde (MDA) equivalents, were normalized to the cell protein for each Petri dish. Each TBARS determination was performed in triplicate (e.g., with three Petri dishes per data point).

[4] = test system: human skin explants; experiment: CPD formation in UV-irradiated human skin explants; format: cell-based; conditions: 3 hrs post irradiation/treatment; Calcitriol 1 nM; IK34720 50, 250 or 500 μM
Description: Human skin removed at elective surgery was cleaned, dissected and cut into pieces of approx. 5 mm×5 mm. Each piece was placed in a well of a 96 well plate, with individual plates prepared to assess the effects 3 hrs post treatment. All samples were performed in triplicate for each treatment. Skin was subjected to UV-radiation from solar-simulated UV source for 1.5 h (UVR), or non-irradiation (SHAM). Given that human skin is thicker than mouse skin, human skin explants were exposed to a radiation dose three times higher than that used for mouse skin, i.e., 20 J/cm2 versus 7 J/cm^2, respectively, and the output spectrum of the laboratory solar simulator has previously been reported (Rybchyn M S et al, J Invest Dermatol. 2018 May; 138 (5): 1146-1156) and treated immediately after with a vehicle control, Calcitriol (1 nM) or the polypeptide IK34720 (SEQ ID NO: 3) at concentrations of 50 μM, 250 μM or 500 μM.
Samples harvested at 3 hrs were fixed, section, stained and quantified as described in Example 5.

[5] = test system: primary keratinocytes; experiment: CPD detection by IHC in keratinocytes 3 h following UV-irradiation; format: cell-based; conditions: 5 μM after ssUV; fixed 3 h after UV
Description: An in vitro assay was conducted allowing for densitometry analysis of CPD detection by IHC in keratinocytes 3 h following UV-irradiation in accordance with the following protocol.
Keratinocytes were harvested and cultured as described above at Example 2. Samples were split into two groups, being UV irradiated (UVR) and non-UV irradiated (SHAM). UV-irradiation was performed by solar simulated UV-irradiation for cells, also as described above at Example 2. Irradiation solution was PBS containing 5 mM D-glucose. […]
Harvested keratinocytes were plated on poly-D-lysine coated coverslips in 96 well plates and irradiated (or sham treated) as described above in at Example 2 in PBS containing 5 mM D-glucose. Keratinocytes were fixed 3 h after UV-irradiation. Immunohistochemistry and image analysis were performed as described previously (Gordon-Thomson et al., Photochem Photobiol Sci, 2012, 11 (12): 1837-47; Gupta et al., vide supra, Rybchyn M S et al., J Invest Dermatol, 2018; 138 (5): 1146-1156). Thymine dimers were detected using the anti-thymine dimer antibody (Sigma-Aldrich, Missouri, USA) at 10 μg/mL, and quantified as an index of CPD, as previously described (Douki T and Cadet J, Biochemistry, 2001, 40 (8): 2495-501).
Following irradiation, keratinocytes were treated with either Calcitriol, vehicle control (Veh) or the polypeptide IK34720 (SEQ ID NO: 3; “IK”) IK14800; (RSKAKNPLYRRRRRRRRR), RSKAKNPLY (IK94000) and RRRRRRRRR (IK00900), at concentrations of 5 μM.

[6] = target: T1, polypeptide IK34720 (RSKAKNPLYRRRRRRRRR)
T1 chain: RSKAKNPLYRRRRRRRRR

CCNC(=O)[C@H]1O[C@@H](n2cnc3c(N)nc(NCCc4ccc(CCC(=O)O)cc4)nc32)[C@H](O)[C@@H]1O [CGS-21680, reference compound]
wound closure percentage ([1]; Day 5 to Day 11, vs negative control (PBS)): increase wound healing

C=C1/C(=C\C=C2/CCC[C@]3(C)[C@@H]([C@H](C)CCCC(C)(C)O)CC[C@@H]23)C[C@@H](O)C[C@@H]1O [Calcitriol, 1,25-dihydroxyvitamin D3, reference compound]
cells staining for MMP-1 [2]: fewer stained cells
significant difference in TRS (TBA reactive substances) between Sham and UV irradiation [3]: not seen
cells stained for CPDs [4]: fewer stained cells

RRRRRRRRR [IK00900]
CPD levels compared to vehicle-treated UV-irradiated keratinocytes [5]: decrease CPD levels; also recorded: statistically significant (*p<0.05) reduction in CPD levels
reduction in CPD levels compared to Calcitriol [5]: comparable reduction in CPD levels to keratinocytes treated with Calcitriol

RSKAKNPLY (not fully specified (some residues)) [IK94000]
CPD levels compared to vehicle-treated UV-irradiated keratinocytes [5]: decrease CPD levels; also recorded: statistically significant (*p<0.05) reduction in CPD levels
reduction in CPD levels compared to Calcitriol [5]: comparable reduction in CPD levels to keratinocytes treated with Calcitriol

rrrrrrrrrylpnkaksr ([dR][dR][dR][dR][dR][dR][dR][dR][dR][dY][dL][dP][dN][dK][dA][dK][dS][dR]) [IK236770]
wound healing (wound closure % percentage) ([1]; day 5, vs negative control): statistically significant increase in wound healing

B1: Human rheumatoid synovial fibroblast MMP-1 proenzyme, activated with APMA (protein)
chain: FVLTEGNPRWEQTHLTYRIENYTPDLPRADVDHAIEKAFQLWSNVTPLTFTKVSEGQADIMISFVRGDHRDNSPFDGPGGNLAHAFQPGPGIGGDAHFDEDERWTNNFREYNLHRVAAHELGHSLGLSHSTDIGALMYPSYTFSGDVQLAQDDIDGIQAIYGRSQNPVQPIGPQTPKACDSKLTFDAITTIRGEVMFFKDRFYMRTNPFYPEVELNFISVFWPQLPNGLEAAYEFADRDEVRFFKGNKYWAVQGQNVLHGYPKDIYSSFGFPRTVKHIDAALSEENTGKTYFFVANKYWRYDEYKRSMDPGYPKMIAHDFPGIGHKVDAVFMKDGFFYFFHGTRQYKFDPKTKRILTLQKANSWFNCRKN
MMP-1 enzyme activity in vitro (fluorimetric cleavage of Mca-Pro-Leu-Gly-Leu-Dap-Ala-Arg; peptide at 5, 10, 800 and 1000 uM pre-incubated with 8 nM activated enzyme) [6]: inhibits MMP-1 activation in a dose dependent manner

— US20250262139A1, “POLYPEPTIDES AND METHODS FOR IMPROVING SKIN CONDITIONS” (INTERK PEPTIDE THERAPEUTICS LIMITED, priority 2020, published 2025)
